Data published in patent US20090012085A1, “DOSAGE FORMS AND METHODS OF TREATMENT USING A TYROSINE KINASE INHIBITOR” (priority 2005, published 2009).

Key:
solid tumor malignancies = experiment: Efficacy study in humans with solid tumors (RECIST, CT scan or MRI); format: in vivo, human; design: key to Response time and response: PR means partial response; CR means complete response
Description: Complete Response (CR), as used herein, unless otherwise indicated, refers to disappearance of all measurable and nonmeasurable lesions and no appearance of new lesions in a patient under the treatment of compound of formula 1, its pharmaceutically acceptable salt or solvate thereof, or a mixture thereof.
Partial Response (PR), as used herein, unless other wise indicated, refers to at least a 30% decrease in the sum of the LDs of target lesions (taking as reference the baseline sum), without progression of nontarget lesions and no appearance of new lesions in a patient under treatment of compound of formula 1, its pharmaceutically acceptable salt or solvate thereof, or a mixture thereof.
50 patients were treated under a dose-escalating multicenter study of patients with solid tumor malignancies not amenable to conventional therapies. The types of tumor malignancies that the patients had included colorectal carcinoma, renal cell carcinoma, esophageal carcinoma, thymus carcinoma, mastocytosis, lung cancer and multiple endocrine neoplasia type II and other malignances. Patients were treated in cohorts of 6 with escalating QD (once per day) doses of a maleate salt of a compound of formula 1. Each study cycle was a five week cycle consisting of 4 weeks of treatment followed by 1 week of rest (4/1 schedule) or a five week cycle of continuous dosing without any rest period.
Of these 50 patients, all patients were evaluated for efficacy determinations. Tumor size was measured at the end of each cycle of treatment. […] The partial response of four of these seven patients was confirmed by a repeat assessment four weeks later. The partial response of the other three patients has not been confirmed. The tumor shrinkage was determined by either CT scan or MRI as per RECIST criteria.

[1] = test system: solid and hematopoietic cancer xenograft models; conditions: diverse preclinical solid and hematopoietic cancer xenograft models; cited from earlier work

## Cc1[nH]c(/C=C2\C(=O)Nc3ccc(F)cc32)c(C)c1C(=O)NC[C@H](O)CN1CCOCC1 [compound 1, 5-[(Z)-(5-fluoro-2-oxo-1,2-dihydro-3H-indol-3-ylidene)methyl]-N-[(2S)-2-hydroxy-3-morpholin-4-ylpropyl]-2,4-dimethyl-1H-pyrrole-3-carboxamide]
Solid tumor malignancies; Patient 1, Renal cell carcinoma, 50 mg 4/1 QD, after 2nd cycle
  Response time and response: PR
Solid tumor malignancies; Patient 1, Renal cell carcinoma, 50 mg 4/1 QD, at cycle 5
  Response time and response: CR
Solid tumor malignancies; Patient 2, Biliary cell Carcinoma, 100 mg 4/1 QD, at cycle 5, confirmed
  Response time and response: PR at cycle 5, confirmed.
Solid tumor malignancies; Patient 3, Thyroid carcinoma, 150 mg QD 4/1, after 1st cycle, confirmed
  Response time and response: PR after 1st cycle,
Solid tumor malignancies; Patient 4, Colon adenocarcinoma, 150 mg QD 4/1, after 1st cycle, not confirmed
  Response time and response: PR after 1st cycle, not
Solid tumor malignancies; Patient 5, Renal cell carcinoma, 250 mg QD 4/1, after 1st cycle, confirmed
  Response time and response: PR after 1st cycle,
Solid tumor malignancies; Patient 6, Alveolar soft tissue carcinoma, cycle 1 250 mg QD 4/1, cycle 2 and beyond 200 mg QD 4/1, not confirmed
  Response time and response: PR, not confirmed
Solid tumor malignancies; Patient 7, Renal cell carcinoma, 150 mg continuous, after 1st cycle, not confirmed
  Response time and response: PR after 1st cycle, not
Solid tumor malignancies; Patient 8, Thymoma, cycle 1 150 mg continuous, cycle 2 and beyond 100 mg continuous, not confirmed
  Response time and response: PR, not confirmed.
Solid tumor malignancies; among the 50 patients
  patients showing complete response: 1 patient
  patients showing partial response: 7 patients
Solid tumor malignancies; of the seven patients with partial response
  partial responses confirmed by a repeat assessment four weeks later: four
[1]
  anti-tumor activity: has anti-tumor activity
